Measurements: patent US8236828B2, “Insecticidal compounds” (Syngenta Crop Protection LLC, priority 2007, dated 2012)

Assays:
Assay type in all cases: in vivo
[1] = tested on: Spodoptera littoralis (Egyptian Cotton Leafworm); assay: Spodoptera littoralis cotton leaf disc spray test; details: same protocol, 200 ppm, 3 DAT
Procedure: (§1) This Example illustrates the pesticidal/insecticidal properties of compounds of formula (I). Tests were performed as follows:
Spodoptera littoralis (Egyptian Cotton Leafworm):
(§2) • Cotton leaf discs were placed on agar in a 24-well microtiter plate and sprayed with test solutions at an application rate of 200 ppm. After drying, the leaf discs were infested with 5 L1 larvae. The samples were checked for mortality, feeding behaviour, and growth regulation 3 days after treatment (DAT). • The following compounds gave at least 80% control of Spodoptera littoralis: A1, A2, A3, A4, A5, A6, A10, A13, A17, A19. Heliothis virescens (Tobacco Budworm): • Eggs (0-24 h old) were placed in 24-well microtiter plate on artificial diet and treated with test solutions at an application rate of 200 ppm (concentration in well 18 ppm) by pipetting. After an incubation period of 4 days, samples were checked for egg mortality, larval mortality, and growth regulation. • The following compounds gave at least 80% control of Heliothis virescens: A1, A2, A3, A4, A5, A6, A7, A9, A10, A11, A12, A14, A17, A18, A19, A21. Plutella xylostella (Diamond Back Moth): • 24-well microtiter plate (MTP) with artificial diet was treated with test solutions at an application rate of 200 ppm (concentration in well 18 ppm) by pipetting. After drying, the MTP's were infested with L2 larvae (7-12 per well). […]

[2] = tested on: Diabrotica balteata (Corn Root Worm); assay: Diabrotica balteata larvae test on artificial diet; details: same protocol, 200 ppm, 5 days
[3] = tested on: Plutella xylostella (Diamond Back Moth); assay: Plutella xylostella larvae test on artificial diet; details: same protocol, 200 ppm, 6 days
Procedure: as §1, §2

[4] = tested on: Heliothis virescens (Tobacco Budworm); assay: Heliothis virescens egg test on artificial diet; details: same protocol, 200 ppm, 4 days
Procedure: as §1, §2

Measured: damage to the test organisms

CSc1cc(C(F)(F)F)ccc1C(=O)Nc1cc(C(=O)Nc2c(C)cc(C3(C(F)(F)F)CC(c4ccc(Cl)cc4)=NO3)cc2C)ccc1C#N (centres unmarked) [A8]
little or no damage: all assays above

COC(=O)c1ccc(C(=O)Nc2cc(C(=O)Nc3c(C)cc(C4(C(F)(F)F)CC(c5ccc(Cl)cc5)=NO4)cc3C)ccc2C#N)cc1 (centres unmarked) [A20]
little or no damage: all assays above
